Test results: ChEMBL document CHEMBL4196011, “The lead optimization of the polyamine conjugate of flavonoid with a naphthalene motif: Synthesis and biological evaluation” (Eur J Med Chem, 2018); call rule not given here

Columns and labels:
Mus musculus [1] = assay: Toxicity in Kunming mouse xenografted with […] H22 cells assessed as effect on lung weight index at 30 mg/kg, iv administered for 7 consecutive days; format: organism-based; conditions: in vivo
HepG2 [2] = assay: Induction of apoptosis in human HepG2 cells assessed as increase in cleaved PARP1 levels after 48 hrs by immunofluorescence staining-based high content screening assay; format: functional, cell-based
HepG2 [3] = assay: Induction of apoptosis in human HepG2 cells assessed as late apoptotic cells at 2.5 uM after 8 hrs by Annexin V-FITC/propidium iodide staining-based flow cytometry (reference value: 0.88%); format: functional
HepG2 [4] = assay: Induction of apoptosis in human HepG2 cells assessed as viable cells at 7.5 uM after 36 hrs by Annexin V-FITC/propidium iodide staining-based flow cytometry (reference value: 96.6%); format: functional; conditions: HepG2, 36 h, read-out: Activity
Mus musculus [5] = assay: Toxicity in Kunming mouse xenografted with […] H22 cells assessed as effect on body weight at 30 mg/kg, iv administered for 7 consecutive days; format: organism-based; conditions: in vivo
HepG2 [6] = assay: Induction of apoptosis in human HepG2 cells assessed as late apoptotic cells at 7.5 uM after 36 hrs by Annexin V-FITC/propidium iodide staining-based flow cytometry (reference value: 1.08%); format: functional
HepG2 [7] = assay: Induction of ROS generation in human HepG2 cells after 48 hrs by DCFH-DA staining-based fluorescence assay; format: functional, cell-based
HepG2 [8] = assay: Induction of apoptosis in human HepG2 cells assessed as increase in p53 protein expression after 48 hrs by immunofluorescence staining-based high content screening assay; format: functional, cell-based
HepG2 [9] = assay: Induction of apoptosis in human HepG2 cells assessed as disruption of mitochondrial membrane potential after 48 hrs by Rh123 staining-based fluorescence quenching analysis; format: functional, cell-based
HepG2 [10] = assay: Induction of apoptosis in human HepG2 cells assessed as early apoptotic cells at 5 uM after 48 hrs by Annexin V-FITC/propidium iodide staining-based flow cytometry (reference value: 1.30%); format: functional
HepG2 [11] = assay: Induction of apoptosis in human HepG2 cells assessed as increase in Bax protein expression after 48 hrs by immunofluorescence staining-based high content screening assay; format: functional, cell-based
HepG2 [12] = assay: Induction of apoptosis in human HepG2 cells assessed as viable cells at 5 uM after 24 hrs by Annexin V-FITC/propidium iodide staining-based flow cytometry (reference value: 96.97%); format: functional; conditions: HepG2, 24 h, read-out: Activity
HepG2 [13] = assay: Induction of apoptosis in human HepG2 cells assessed as decrease in nuclear volume after 48 hrs by Hoechst 33342 staining-based assay; format: functional, cell-based
HepG2 [14] = assay: Induction of apoptosis in human HepG2 cells assessed as early apoptotic cells at 7.5 uM after 24 hrs by Annexin V-FITC/propidium iodide staining-based flow cytometry (reference value: 2.07%); format: functional
HepG2 [15] = assay: Induction of apoptosis in human HepG2 cells assessed as viable cells at 5 uM after 8 hrs by Annexin V-FITC/propidium iodide staining-based flow cytometry (reference value: 97.43%); format: functional; conditions: HepG2, 8 h, read-out: Activity
Mus musculus [16] = assay: Toxicity in Kunming mouse xenografted with […] H22 cells assessed as effect on kidney weight index at 30 mg/kg, iv administered for 7 consecutive days; format: organism-based; conditions: in vivo
HepG2 [17] = assay: Induction of apoptosis in human HepG2 cells assessed as late apoptotic cells at 2.5 uM after 36 hrs by Annexin V-FITC/propidium iodide staining-based flow cytometry (reference value: 1.08%); format: functional
HepG2 [18] = assay: Induction of apoptosis in human HepG2 cells assessed as necrotic cells at 5 uM after 36 hrs by Annexin V-FITC/propidium iodide staining-based flow cytometry (reference value: 0.24%); format: functional
HepG2 [19] = assay: Induction of apoptosis in human HepG2 cells assessed as necrotic cells at 5 uM after 24 hrs by Annexin V-FITC/propidium iodide staining-based flow cytometry (reference value: 0.12%); format: functional
HepG2 [20] = assay: Induction of apoptosis in human HepG2 cells assessed as upregulation of active caspase 9 level after 48 hrs by immunofluorescence staining-based high content screening assay; format: functional, cell-based
HepG2 [21] = assay: Induction of apoptosis in human HepG2 cells assessed as necrotic cells at 2.5 uM after 8 hrs by Annexin V-FITC/propidium iodide staining-based flow cytometry (reference value: 0.40%); format: functional
HepG2 [22] = assay: Induction of apoptosis in human HepG2 cells assessed as necrotic cells at 2.5 uM after 48 hrs by Annexin V-FITC/propidium iodide staining-based flow cytometry (reference value: 0.08%); format: functional
Mus musculus [23] = assay: Toxicity in Kunming mouse xenografted with […] H22 cells assessed as effect on spleen weight index at 30 mg/kg, iv administered for 7 consecutive days; format: organism-based; conditions: in vivo
HepG2 [24] = assay: Induction of apoptosis in human HepG2 cells assessed as late apoptotic cells at 5 uM after 36 hrs by Annexin V-FITC/propidium iodide staining-based flow cytometry (reference value: 1.08%); format: functional
HepG2 [25] = assay: Induction of apoptosis in human HepG2 cells assessed as caspase 3 activation after 48 hrs by immunofluorescence staining-based high content screening assay; format: functional, cell-based
HepG2 [26] = assay: Induction of apoptosis in human HepG2 cells assessed as viable cells at 5 uM after 36 hrs by Annexin V-FITC/propidium iodide staining-based flow cytometry (reference value: 96.6%); format: functional; conditions: HepG2, 36 h, read-out: Activity
HepG2 [27] = assay: Induction of apoptosis in human HepG2 cells assessed as viable cells at 7.5 uM after 8 hrs by Annexin V-FITC/propidium iodide staining-based flow cytometry (reference value: 97.43%); format: functional; conditions: HepG2, 8 h, read-out: Activity
HepG2 [28] = assay: Induction of apoptosis in human HepG2 cells assessed as necrotic cells at 7.5 uM after 36 hrs by Annexin V-FITC/propidium iodide staining-based flow cytometry (reference value: 0.24%); format: functional
HepG2 [29] = assay: Induction of apoptosis in human HepG2 cells assessed as viable cells at 7.5 uM after 24 hrs by Annexin V-FITC/propidium iodide staining-based flow cytometry (reference value: 96.97%); format: functional; conditions: HepG2, 24 h, read-out: Activity
HepG2 [30] = assay: Induction of apoptosis in human HepG2 cells assessed as late apoptotic cells at 7.5 uM after 8 hrs by Annexin V-FITC/propidium iodide staining-based flow cytometry (reference value: 0.88%); format: functional
HepG2 [31] = assay: Induction of apoptosis in human HepG2 cells assessed as viable cells at 2.5 uM after 48 hrs by Annexin V-FITC/propidium iodide staining-based flow cytometry (reference value: 96.67%); format: functional; conditions: HepG2, 48 h, read-out: Activity
HepG2 [32] = assay: Induction of apoptosis in human HepG2 cells assessed as necrotic cells at 7.5 uM after 48 hrs by Annexin V-FITC/propidium iodide staining-based flow cytometry (reference value: 0.08%); format: functional
HepG2 [33] = assay: Induction of apoptosis in human HepG2 cells assessed as early apoptotic cells at 5 uM after 36 hrs by Annexin V-FITC/propidium iodide staining-based flow cytometry (reference value: 2.08%); format: functional
HepG2 [34] = assay: Induction of apoptosis in human HepG2 cells assessed as necrotic cells at 5 uM after 8 hrs by Annexin V-FITC/propidium iodide staining-based flow cytometry (reference value: 0.40%); format: functional
[35] = Drug localization in lysosomes of human HepG2 cells at 7.5 uM after 8 hrs by LysoTracker Red dye-based confocal fluorescence microscopic analysis; format: ADME, subcellular, Lysosome; conditions: hepg2, 8 h

With `COc1ccc2cc(-c3oc4c(CNCCCCN)cccc4c(=O)c3OC)ccc2c1Br.Cl.Cl` as the compound, how does the Activity (Mus musculus [1]) read?
Its Activity is “Non-Toxic”.

And the Activity (HepG2 [2])?
The Activity was “Dose-dependent effect”.

And the Activity (HepG2 [3])?
The Activity was 1.52%.

And the viability at 7.5 µM (HepG2 [4])?
Its viability at 7.5 µM is 64.7%.

What about the Activity (Mus musculus [5]) of the same compound?
The Activity was “Non-Toxic”.

And the Activity (HepG2 [6])?
Its Activity is 6.3%.

What about the Activity (HepG2 [7]) of the same compound?
Its Activity is “Dose-dependent effect”.

What about the Activity (HepG2 [8]) of the same compound?
Its Activity is “Dose-dependent effect”.

And the Activity (HepG2 [9])?
The Activity was “Dose-dependent effect”.

What about the Activity (HepG2 [10]) of the same compound?
Its Activity is 26.36%.

And the Activity (HepG2 [11])?
Its Activity is “Dose-dependent effect”.

And the viability at 5 µM (HepG2 [12])?
Its viability at 5 µM is 82.2%.

And the Activity (HepG2 [13])?
Its Activity is “Dose-dependent effect”.

What about the Activity (HepG2 [14]) of the same compound?
Its Activity is 18.85%.

And the viability at 5 µM (HepG2 [15])?
Its viability at 5 µM is 93%.

What about the Activity (Mus musculus [16]) of the same compound?
Its Activity is “Non-Toxic”.

And the Activity (HepG2 [17])?
The Activity was 5.89%.

And the Activity (HepG2 [18])?
The Activity was 0.09%.

What about the Activity (HepG2 [19]) of the same compound?
The Activity was 0.05%.

And the Activity (HepG2 [20])?
The Activity was “Dose-dependent effect”.

And the Activity (HepG2 [21])?
The Activity was 0.3%.

And the Activity (HepG2 [22])?
The Activity was 0.29%.

What about the Activity (Mus musculus [23]) of the same compound?
The Activity was “Non-Toxic”.

And the Activity (HepG2 [24])?
Its Activity is 2.15%.

What about the Activity (HepG2 [25]) of the same compound?
The Activity was “Dose-dependent effect”.

And the viability at 5 µM (HepG2 [26])?
The viability at 5 µM was 81%.

What about the viability at 7.5 µM (HepG2 [27]) of the same compound?
Its viability at 7.5 µM is 78.5%.

What about the Activity (HepG2 [28]) of the same compound?
The Activity was 0.26%.

And the viability at 7.5 µM (HepG2 [29])?
Its viability at 7.5 µM is 67.2%.

What about the Activity (HepG2 [30]) of the same compound?
Its Activity is 3.38%.

And the viability at 2.5 µM (HepG2 [31])?
Its viability at 2.5 µM is 74.1%.

What about the Activity (HepG2 [32]) of the same compound?
The Activity was 0.17%.

What about the Activity (HepG2 [33]) of the same compound?
Its Activity is 16.72%.

What about the Activity (HepG2 [34]) of the same compound?
The Activity was 0.03%.

What about the Drug uptake [35] of the same compound?
Its Drug uptake is “Not Active”.
